Experimental data published in patent US11160871B2, “SSTR-targeted conjugates and particles and formulations thereof” (TARVEDA THERAPEUTICS, INC., priority 2015, dated 2021).
“And” between values parts separate entries of the source, which are not always exact repeats. Identical values can stand only once.

Legend:
[1] = molecular target: SSTR1 (Homo sapiens, UniProt P30872); test: Radioligand-receptor binding assay, same method; conditions: read-out: Conjugate 57 Ki
Method: (§1) Two conjugates were assessed in an in vitro assay evaluating binding to the somatostatin receptor 2 (SSTR2). A radioligand-receptor binding assay was conducted at Eurofins Panlabs (Taiwan) to determine the affinity of conjugates described herein to the SSTR2. The assay measures binding of radiolabeled ligand, [^125I] labeled somatostatin, to human SSTR2 using membrane preparations from SSTR2 expressing CHO-K1 cells. Membranes were incubated with radiolabeled somatostatin (0.03 nM) in the presence of conjugate/compound starting at a dose of 10 uM using 6× serial dilutions to obtain a 10-pt curve. After a four hour incubation, membranes were filtered and washed 3× and counted to determine the remaining[^125 I] somatostatin bound to the receptor. IC50 values were determined by a non-linear, least squares regression analysis using MathIQ™ (ID Business Solutions Ltd., UK). The Ki values were calculated using the equation of Cheng and Prusoff (Cheng and Prusoff, Biochem. Pharmacol. 22:3099-3108, 1973) using the observed IC50 of the tested conjugate/compound, the concentration of radioligand employed in the assay, and the historical values for the KD of the ligand obtained at Eurofins.
(§2) In another study, the binding of Conjugate 57 to the five SSTRs was measured with the same method. Conjugate 57 binds selectively and with high affinity to SSTR2.

[2] = molecular target: SSTR3 (Homo sapiens, UniProt P32745); test: Radioligand-receptor binding assay, same method; conditions: read-out: Conjugate 57 Ki
Chain of SSTR3 (P32745 whole entry): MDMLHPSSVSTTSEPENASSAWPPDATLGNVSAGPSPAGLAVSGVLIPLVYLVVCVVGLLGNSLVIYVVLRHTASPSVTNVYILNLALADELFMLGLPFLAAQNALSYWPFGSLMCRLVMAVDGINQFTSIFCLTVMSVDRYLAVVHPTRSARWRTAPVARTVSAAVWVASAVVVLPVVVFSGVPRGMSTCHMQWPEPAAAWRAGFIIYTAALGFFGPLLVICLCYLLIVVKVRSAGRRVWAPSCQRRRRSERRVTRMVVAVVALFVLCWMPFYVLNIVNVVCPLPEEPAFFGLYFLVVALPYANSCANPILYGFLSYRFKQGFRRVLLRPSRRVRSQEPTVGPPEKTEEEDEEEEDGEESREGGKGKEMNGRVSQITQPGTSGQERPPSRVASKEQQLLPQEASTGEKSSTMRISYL
Method: as §1, §2

[3] = molecular target: SSTR4 (Homo sapiens, UniProt P31391); test: Radioligand-receptor binding assay, same method; conditions: read-out: Conjugate 57 Ki
Chain of SSTR4 (P31391 whole entry): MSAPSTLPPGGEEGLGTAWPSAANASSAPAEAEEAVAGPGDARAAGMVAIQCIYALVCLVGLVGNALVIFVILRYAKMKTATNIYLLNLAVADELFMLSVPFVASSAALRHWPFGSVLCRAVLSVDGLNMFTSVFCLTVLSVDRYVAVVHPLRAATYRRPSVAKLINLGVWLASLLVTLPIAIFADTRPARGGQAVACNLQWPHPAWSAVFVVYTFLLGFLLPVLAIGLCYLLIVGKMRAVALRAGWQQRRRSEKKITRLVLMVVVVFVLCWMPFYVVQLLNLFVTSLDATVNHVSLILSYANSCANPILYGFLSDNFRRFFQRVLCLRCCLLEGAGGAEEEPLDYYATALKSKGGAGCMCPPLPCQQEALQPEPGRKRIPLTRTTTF
Method: as §1, §2

[4] = molecular target: SSTR5 (Homo sapiens, UniProt P35346); test: Radioligand-receptor binding assay, same method; conditions: read-out: Conjugate 57 Ki
Chain of SSTR5 (P35346 whole entry): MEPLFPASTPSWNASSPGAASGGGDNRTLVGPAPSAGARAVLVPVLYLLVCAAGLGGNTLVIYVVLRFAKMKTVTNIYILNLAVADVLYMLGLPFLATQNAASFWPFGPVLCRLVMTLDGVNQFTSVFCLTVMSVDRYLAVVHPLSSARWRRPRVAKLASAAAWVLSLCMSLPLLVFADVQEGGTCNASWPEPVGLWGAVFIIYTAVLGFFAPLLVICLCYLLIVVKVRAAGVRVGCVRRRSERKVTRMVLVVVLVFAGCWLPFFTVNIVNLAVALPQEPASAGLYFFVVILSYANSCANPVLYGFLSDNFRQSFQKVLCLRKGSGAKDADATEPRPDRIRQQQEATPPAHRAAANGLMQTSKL
Method: as §1, §2

[5] = molecular target: hERG (Homo sapiens, UniProt Q12809); test: IonWorks Quattro hERG assay; assay type: cell-based; conditions: up to 10 uM
[6] = tested on: NCI-H69 tumors; test: NCI-H69 tumor volume study, 2 doses; assay type: in vivo, mice
Method: In another study, 10 mice bearing NCI-H69 tumors were given 2 doses of Conjugate 57 at 2 mg/kg each. 9 mice bearing NCI-H69 tumors were given 2 doses of Conjugate 57 at 1.3 mg/kg each. All 10 animals dosed at 2 mg/kg had no detectable tumors at study end. Conjugate 57 More than half (5 out of 9) animals dosed at 1.3 mg/kg had no detectable tumors at study end.

[7] = tested on: NCI-H69 small cell lung cancer model; test: NCI-H69 model, comparison with standard of care combination; assay type: in vivo, rats; conditions: Cycle 1 Day 1, Cycle 2 Day 8; Conjugate 57 one cycle at MTD (2 mg/kg), other doses equivalent
Method: In yet another study, single cycle of Conjugate 57 treatment was compared with two cycles of standard of care combination in NCI-H69 small cell lung cancer model. NCI-H69 bearing rats were treated with two cycles of cctreotide+DM1, one or two cycles of cisplatin+etoposide, one cycle of Conjugate 57. Cycle 1 was given on Day 1, Cycle 2 on Day 8. Rats were dosed with MTD (2 mg/kg) of Conjugate 57. Octreotide, DM1, cisplatin, and etoposide doses were equivalent to Conjugate 57.

[8] = molecular target: CYP1A2 (Homo sapiens, UniProt P05177); test: CYP inhibition; assay type: in vitro ADME
Method: (§3) In a further study, the potential for Conjugate 57 to inhibit cytochrome P450 (CYP) was tested across 7 isozymes of CYP enzymes. […] The data also indicate Conjugate 57 presents no risk for causing drug-drug interactions (DDIs) by inhibiting the CYP clearance of other drugs. Lack of DDIs is critical when developing combination therapies.

[9] = molecular target: CYP2B6 (Homo sapiens, UniProt P20813); test: CYP inhibition; assay type: in vitro ADME
Chain of CYP2B6 (P20813 whole entry): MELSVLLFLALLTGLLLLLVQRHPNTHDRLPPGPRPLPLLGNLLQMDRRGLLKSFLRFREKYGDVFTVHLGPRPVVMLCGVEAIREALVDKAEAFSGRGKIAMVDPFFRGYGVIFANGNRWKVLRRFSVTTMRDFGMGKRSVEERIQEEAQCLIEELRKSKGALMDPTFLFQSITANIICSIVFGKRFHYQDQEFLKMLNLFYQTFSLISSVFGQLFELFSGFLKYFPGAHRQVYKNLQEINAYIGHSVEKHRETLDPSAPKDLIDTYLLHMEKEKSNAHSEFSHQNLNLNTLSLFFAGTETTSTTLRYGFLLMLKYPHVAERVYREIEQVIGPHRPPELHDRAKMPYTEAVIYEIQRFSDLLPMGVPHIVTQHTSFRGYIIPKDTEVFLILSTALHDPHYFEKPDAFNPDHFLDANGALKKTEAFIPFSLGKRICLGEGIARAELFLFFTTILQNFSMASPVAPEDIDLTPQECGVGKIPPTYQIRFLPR
Method: as §3

[10] = molecular target: CYP2C19 (Homo sapiens, UniProt P33261); test: CYP inhibition; assay type: in vitro ADME
Chain of CYP2C19 (P33261 whole entry): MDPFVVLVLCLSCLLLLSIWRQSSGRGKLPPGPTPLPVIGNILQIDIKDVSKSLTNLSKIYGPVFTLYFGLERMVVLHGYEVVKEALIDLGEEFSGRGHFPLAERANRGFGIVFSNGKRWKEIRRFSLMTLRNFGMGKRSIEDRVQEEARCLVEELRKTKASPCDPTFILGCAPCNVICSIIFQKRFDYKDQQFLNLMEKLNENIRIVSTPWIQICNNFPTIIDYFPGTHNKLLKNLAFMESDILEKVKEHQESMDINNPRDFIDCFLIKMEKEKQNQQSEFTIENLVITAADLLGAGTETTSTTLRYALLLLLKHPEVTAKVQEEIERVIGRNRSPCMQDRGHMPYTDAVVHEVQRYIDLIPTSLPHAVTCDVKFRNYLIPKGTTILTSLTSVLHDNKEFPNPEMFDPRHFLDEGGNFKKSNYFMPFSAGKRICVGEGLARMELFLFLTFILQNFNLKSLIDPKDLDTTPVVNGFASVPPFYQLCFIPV
Method: as §3

[11] = molecular target: CYP2C8 (Homo sapiens, UniProt P10632); test: CYP inhibition; assay type: in vitro ADME
Chain of CYP2C8 (P10632 whole entry): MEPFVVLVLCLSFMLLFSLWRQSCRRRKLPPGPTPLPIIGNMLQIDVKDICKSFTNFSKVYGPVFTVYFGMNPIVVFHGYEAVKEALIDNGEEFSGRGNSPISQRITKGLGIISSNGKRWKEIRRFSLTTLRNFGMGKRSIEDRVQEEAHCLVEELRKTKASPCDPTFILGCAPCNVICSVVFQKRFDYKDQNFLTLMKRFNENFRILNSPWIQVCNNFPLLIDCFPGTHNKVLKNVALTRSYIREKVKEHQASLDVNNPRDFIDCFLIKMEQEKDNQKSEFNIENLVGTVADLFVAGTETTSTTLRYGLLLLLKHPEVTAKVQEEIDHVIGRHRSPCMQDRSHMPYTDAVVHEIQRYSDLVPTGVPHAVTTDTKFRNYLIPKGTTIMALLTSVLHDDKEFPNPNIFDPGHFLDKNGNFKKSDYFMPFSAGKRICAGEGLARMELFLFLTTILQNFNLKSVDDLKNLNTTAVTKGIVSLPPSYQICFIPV
Method: as §3

[12] = molecular target: CYP2C9 (Homo sapiens, UniProt P11712); test: CYP inhibition; assay type: in vitro ADME
Chain of CYP2C9 (P11712 whole entry): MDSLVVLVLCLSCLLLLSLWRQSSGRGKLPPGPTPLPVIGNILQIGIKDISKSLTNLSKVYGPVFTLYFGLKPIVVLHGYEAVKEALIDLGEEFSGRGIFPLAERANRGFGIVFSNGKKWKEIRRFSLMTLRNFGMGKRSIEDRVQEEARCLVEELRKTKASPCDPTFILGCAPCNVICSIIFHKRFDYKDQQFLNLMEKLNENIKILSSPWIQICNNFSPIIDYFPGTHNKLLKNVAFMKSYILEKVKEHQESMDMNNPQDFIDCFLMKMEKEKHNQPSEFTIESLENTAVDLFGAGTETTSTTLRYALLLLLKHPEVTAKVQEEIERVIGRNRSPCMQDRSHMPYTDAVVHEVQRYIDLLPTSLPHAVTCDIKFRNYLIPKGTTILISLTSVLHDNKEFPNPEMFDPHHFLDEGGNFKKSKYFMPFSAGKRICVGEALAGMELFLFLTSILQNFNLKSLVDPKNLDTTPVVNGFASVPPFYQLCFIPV
Method: as §3

[13] = molecular target: CYP2D6 (Homo sapiens, UniProt P10635); test: CYP inhibition; assay type: in vitro ADME
Chain of CYP2D6 (P10635 whole entry): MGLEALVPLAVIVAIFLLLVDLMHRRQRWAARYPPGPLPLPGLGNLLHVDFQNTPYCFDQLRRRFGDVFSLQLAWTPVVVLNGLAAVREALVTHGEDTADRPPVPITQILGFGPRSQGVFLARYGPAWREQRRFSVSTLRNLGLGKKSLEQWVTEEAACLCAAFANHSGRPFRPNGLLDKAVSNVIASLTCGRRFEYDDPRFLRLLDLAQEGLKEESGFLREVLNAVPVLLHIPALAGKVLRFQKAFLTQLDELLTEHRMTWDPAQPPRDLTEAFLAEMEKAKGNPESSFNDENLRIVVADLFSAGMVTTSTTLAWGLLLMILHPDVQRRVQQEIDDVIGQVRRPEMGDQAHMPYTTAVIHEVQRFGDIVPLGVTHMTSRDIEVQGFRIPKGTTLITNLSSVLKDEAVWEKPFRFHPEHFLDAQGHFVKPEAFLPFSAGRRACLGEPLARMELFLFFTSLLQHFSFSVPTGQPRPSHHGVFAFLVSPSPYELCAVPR
Method: as §3

[14] = molecular target: CYP3A4 (Homo sapiens, UniProt P08684); test: CYP inhibition; assay type: in vitro ADME
Chain of CYP3A4 (P08684 whole entry): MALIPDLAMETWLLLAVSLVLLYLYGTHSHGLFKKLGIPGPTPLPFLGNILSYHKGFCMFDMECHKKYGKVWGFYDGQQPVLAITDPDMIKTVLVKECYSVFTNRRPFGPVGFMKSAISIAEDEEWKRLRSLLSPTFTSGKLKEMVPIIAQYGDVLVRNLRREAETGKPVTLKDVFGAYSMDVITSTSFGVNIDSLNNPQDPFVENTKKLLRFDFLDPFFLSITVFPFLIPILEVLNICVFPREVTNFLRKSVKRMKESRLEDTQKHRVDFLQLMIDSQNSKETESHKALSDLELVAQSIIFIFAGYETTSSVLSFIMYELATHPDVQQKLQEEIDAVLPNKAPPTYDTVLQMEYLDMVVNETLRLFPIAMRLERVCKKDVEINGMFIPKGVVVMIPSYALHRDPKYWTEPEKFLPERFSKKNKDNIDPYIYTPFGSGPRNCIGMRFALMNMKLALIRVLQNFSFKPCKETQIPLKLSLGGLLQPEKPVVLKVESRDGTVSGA
Method: as §3

[15] = Single dose exploratory toxicity study; assay type: in vivo, SD female rat
Method: Single dose exploratory toxicity studies in SD female rat (dose 0.5 mg/kg to 1.5 mg/kg) for 7-10 days were carried out. Clinical observations, body weight, clinical blood chemistry, histopathology, and complete blood counts were assessed. In the 10-day study, DM1 (0.4 mg/kg) was compared to Conjugate 57 at an equivalent dose of DM1 (1.0 mg/kg of conjugate) and at a 50% higher dose (1.5 mg/kg of conjugate).
Decreased white blood cell (WBC) count is a known dose limiting toxicity of DM1. WBC count was tracked in all groups.
Liver toxicity is also a know dose limiting toxicity of DM1. Alanine transaminase (ALT) and aspartate aminotransferase (AST) are markers of liver toxicity and were measured in all groups.

[16] = tested on: H69 tumors; test: H69 model tumor growth inhibition; assay type: in vivo
[17] = molecular target: SSTR2 (Homo sapiens, UniProt P30874); test: Radioligand-receptor binding assay, [125I] labeled somatostatin; design: host or cells: CHO-K1
Chain of SSTR2 (P30874 whole entry): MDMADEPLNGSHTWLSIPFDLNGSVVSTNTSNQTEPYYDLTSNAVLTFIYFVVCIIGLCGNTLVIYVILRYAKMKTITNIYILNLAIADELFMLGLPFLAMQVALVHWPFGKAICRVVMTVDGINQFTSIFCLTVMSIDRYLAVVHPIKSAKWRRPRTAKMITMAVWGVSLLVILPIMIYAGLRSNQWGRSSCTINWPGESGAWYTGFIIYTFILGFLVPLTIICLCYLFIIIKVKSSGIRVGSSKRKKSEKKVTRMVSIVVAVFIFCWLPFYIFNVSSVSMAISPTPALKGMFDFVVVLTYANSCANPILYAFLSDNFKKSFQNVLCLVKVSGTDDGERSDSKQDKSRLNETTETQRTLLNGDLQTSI
Method: as §1

Chain of SSTR1 (P30872 whole entry): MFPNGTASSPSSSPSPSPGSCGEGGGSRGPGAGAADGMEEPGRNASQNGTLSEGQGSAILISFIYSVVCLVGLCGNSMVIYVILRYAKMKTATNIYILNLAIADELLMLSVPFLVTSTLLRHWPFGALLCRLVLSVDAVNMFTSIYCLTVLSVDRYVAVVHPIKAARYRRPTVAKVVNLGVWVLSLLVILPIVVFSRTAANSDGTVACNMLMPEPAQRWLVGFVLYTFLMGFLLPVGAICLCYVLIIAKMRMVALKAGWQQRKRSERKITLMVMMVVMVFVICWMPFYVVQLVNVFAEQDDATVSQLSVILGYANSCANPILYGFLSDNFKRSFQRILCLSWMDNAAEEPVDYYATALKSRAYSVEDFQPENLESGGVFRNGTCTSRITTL

`COc1cc2cc(c1Cl)N(C)C(=O)C[C@H](OC(=O)[C@H](C)N(C)C(=O)CCSSC[C@H](NC(=O)[C@@H]1CSSC[C@H](NC(=O)[C@H](N)Cc3ccccc3)C(=O)N[C@@H](Cc3ccc(O)cc3)C(=O)N[C@H](Cc3c[nH]c4ccccc34)C(=O)N[C@@H](CCCCN)C(=O)N[C@@H]([C@@H](C)O)C(=O)N1)C(N)=O)[C@]1(C)O[C@H]1[C@H](C)[C@@H]1C[C@@](O)(NC(=O)O1)[C@H](OC)/C=C/C=C(\C)C2` [Conjugate 57] showed a Ki [1] of 310 nM, a Ki [2] of 19.8 nM and a Ki [3] of 5480 nM. The Ki [4] was 9.6 nM, the “inhibition of hERG” value [5] was “no inhibition” and the “animals with no detectable tumors at study end” value ([6]; 2 doses at 1.3 mg/kg each, 9 mice) was 5 out of 9. The “animals with no detectable tumors at study end” value ([6]; 2 doses at 2 mg/kg each, 10 mice) was 10, the “tumor response (tumor volume)” value [7] was “complete regression” and the IC50 [8] was greater than 10000 nM. For the same compound, the IC50 [9] was greater than 10000 nM, the IC50 [10] was greater than 10000 nM and the IC50 [11] was greater than 10000 nM. It also gave an IC50 [12] greater than 10000 nM, an IC50 [13] greater than 10000 nM and an IC50 ([14]; CYP3A4 Midazolam) greater than 10000 nM. The IC50 ([14]; CYP3A4 Testosterone) was greater than 10000 nM, the “AST and ALT” value ([15]; 1.0 mg/kg) was “no effects on AST and ALT” and the “Day 5 weight change (%)” value ([15]; 1.0 mg/kg) was −0.73%. The “Day 10 weight change (%)” value ([15]; 1.0 mg/kg) was “+1.8%”, the “complete blood count (CBC) and WBC count” value ([15]; 1.0 mg/kg and […]) was “no significant changes in complete blood count (CBC) and WBC count” and the tolerability ([15]; 1.0 and […] versus DM1 0.4 mg/kg, 10-day study) was “significantly improved tolerability versus DM1”. For the same compound, the “TGI % Day 8” value ([16]; Conjugate 57 1 mg/kg) was 50.1%, the “TGI % Day 11” value ([16]; Conjugate 57 1 mg/kg) was 61.4% and the “TGI % Day 14” value ([16]; Conjugate 57 1 mg/kg) was 60.4%. For the same compound, the “TGI % Day 19” value ([16]; Conjugate 57 1 mg/kg) was 63%, the “TGI % Day 22” value ([16]; Conjugate 57 1 mg/kg) was 58.4% and the “TGI % Day 8” value ([16]; Conjugate 57 2 mg/kg) was 63.8%. The “TGI % Day 11” value ([16]; Conjugate 57 2 mg/kg) was 82.8%, the “TGI % Day 14” value ([16]; Conjugate 57 2 mg/kg) was 87.9% and the “TGI % Day 19” value ([16]; Conjugate 57 2 mg/kg) was 95.5%. The “TGI % Day 22” value ([16]; Conjugate 57 2 mg/kg) was 97.8%, the “SSTR affinity of Conjugate 57 relative to Conjugate 120” value [17] was 100,00 fold and the Ki ([17]; Conjugate 57 Ki (nM), SSTR2) was 0.018 nM and 0.0177 nM. The Ki ([17]; Ki (nm), SSTR affinity, Example 8) was 0.017 nM and the Ki ([17]; SSTR2 Ki (nM), membranes from SSTR2 expressing CHO-K1 cells) was 0.018 nM.
